We go through ten compounds from the OPERA property sets (Mansouri et al. 2018).

SMILES strings stand for the structures. ≈ marks a conversion by molar mass, not a printed value.

Settings in the first series: not given
`CCOC(=O)C(=Cc1ccc2c(c1)OCO2)NC=O`: the logP is 1.66.

Compound `CCOC(=O)C(=Cc1ccc(Cl)cc1)NC=O` registered a logP of 2.65.

`CCOC(=O)C(=Cc1ccccc1)NC=O`: the logP stood at 2.48.

The compound `CCOC(=O)C(=Cc1ccc(OC)c(OC)c1)NC=O` came in with a logP of 1.97.

For the compound `CCOC(=O)C(=Cc1ccccc1Cl)NC=O`, the logP was determined as 2.41.

Regarding `CCOC(=O)C(=Cc1ccc(OC)cc1)NC=O`, the logP was determined as 2.22.

On to `CCOC(=O)C(=Cc1cccc(Cl)c1)NC=O`, for which the logP was 2.51.

On to `CCOC(=O)C(=Cc1ccoc1)NC=O`, for which the logP was 2.08.

Take `CCOC(=O)C(=Cc1ccc([N+](=O)[O-])cc1)NC=O`: the logP was found to be 2.05.

For the compound `CCOC(=O)C(=Cc1cccc([N+](=O)[O-])c1)NC=O`, the logP is 2.05.

The series is the same for the next values; noted with them: 25 °C.
Regarding `CCOC(=O)C(=Cc1ccoc1)NC=O`, the solubility turned out to be 1790 µM (≈ 374 µg/mL).

A word on the logP: it is the decadic logarithm of the partition coefficient of the neutral form, usually between octanol and water. A word on the solubility: it is how much of the substance goes into solution per volume.
